The text below walks through data of patent EP3949965A1 (Consejo Superior de Investigaciones Cientificas, priority 2020, dated 2022).

Data set [1] is described as follows: in vitro. Particulars: African green monkey.
Data set [2] can be described thus: in vitro. Particulars: human.
The test system of another data set is Vero-E6 cells. Particulars: African green monkey.

In the case of `O=c1[nH]c2ccccc2n1CCCN1CCC(n2c(=O)[nH]c3cc(Cl)ccc32)CC1` [Domperidone, domperidone], the CC50 in “in vitro [1]” turned out to be 25 µM. Further, the CC50 at 72 h in the data set “in vitro [2]” worked out at 4 µM. In addition, the “HIGHEST NONTOXIC CONCENTRATION (MTT)” value in the data set with Vero-E6 cells stood at 12.5.
